Data reported in patent US12600709B2, “Nonpeptide somatostatin type 5 receptor agonists and uses thereof” (Crinetics Pharmaceuticals, Inc., priority 2019, dated 2026).
Read-outs that look alike come from different tables or passages of the source.

What was measured:
[1] = biological target: T1, human somatostatin receptor subtype 2 (Homo sapiens, UniProt P30874); experiment: cAMP assay for SST2R (inhibition of cAMP in CHO-K1 cells); type: cell-based; conditions: Table B; inhibition of cAMP via human SST2 receptor; read-out: SST2 potency
T1 construct: expressed in transfected cells
T1 sequence (P30874 whole entry): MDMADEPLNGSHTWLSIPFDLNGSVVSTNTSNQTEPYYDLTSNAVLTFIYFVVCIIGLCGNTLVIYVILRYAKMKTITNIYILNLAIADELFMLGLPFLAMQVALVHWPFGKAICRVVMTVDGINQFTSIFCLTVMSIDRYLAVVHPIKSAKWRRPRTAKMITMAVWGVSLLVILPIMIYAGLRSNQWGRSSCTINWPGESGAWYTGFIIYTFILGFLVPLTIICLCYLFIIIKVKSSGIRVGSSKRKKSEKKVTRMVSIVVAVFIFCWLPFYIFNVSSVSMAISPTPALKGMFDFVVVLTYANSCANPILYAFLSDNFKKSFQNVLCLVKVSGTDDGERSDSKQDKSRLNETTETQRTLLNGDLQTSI
In short: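 Agonism read as decrease in NKH477 (1.6 μM)-stimulated cAMP: compounds applied 20 min, 37° C, with 0.2 mM IBMX, to CHO-K1 stably expressing human SSTR2. cAMP quantified in lysates by time-resolved fluorescence (HTRF kit, 1-24 h RT), standard-curve regression, then EC50.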

[2] = biological target: T2, human somatostatin receptor subtype 5 (Homo sapiens, UniProt P35346); experiment: cAMP assay for SST5R (inhibition of cAMP in CHO-K1 cells); type: cell-based; conditions: for EC50: inhibition of cAMP via human SST5 receptor, read-out: SST5 potency; for Fold selectivity for SST5 vs SST2: class symbols, SST5 receptor over SST2 receptor
T2 construct: expressed in transfected cells
T2 sequence (P35346 whole entry): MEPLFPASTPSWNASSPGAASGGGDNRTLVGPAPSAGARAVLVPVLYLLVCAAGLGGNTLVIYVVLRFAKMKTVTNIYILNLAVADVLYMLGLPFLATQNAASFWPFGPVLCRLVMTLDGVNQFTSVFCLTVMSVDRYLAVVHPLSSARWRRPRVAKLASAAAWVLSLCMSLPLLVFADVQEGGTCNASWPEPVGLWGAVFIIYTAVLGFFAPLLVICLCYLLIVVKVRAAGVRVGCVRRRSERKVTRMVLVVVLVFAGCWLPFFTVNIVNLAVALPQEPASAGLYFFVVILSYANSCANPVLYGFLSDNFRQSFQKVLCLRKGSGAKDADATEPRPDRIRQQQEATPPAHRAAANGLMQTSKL
In short: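 CHO-K1 cells stably expressing human SSTR5 were treated 20 min at 37 °C with compounds plus 1.6 μM NKH477 in HBSS, 0.5 mM HEPES pH 7.4, 0.1% BSA, 0.2 mM IBMX. Lysate cAMP measured by HTRF against a standard curve; EC50 from cAMP-versus-concentration plots.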

SMILES | EC50 [1] | EC50 ([2]; Table A) | Fold selectivity for SST5 vs SST2 ([2]; Table B) | EC50 ([2]; Table B)
Cc1ncc(C(=O)NC2CCCC2)c(N2CC[C@](C)(N)C2)c1-c1ccnc(C(F)(F)F)c1 [1-258, 4-[(3S)-3-amino-3-methylpyrrolidin-1-yl]-N-cyclopentyl-2-methyl-2′-(trifluoromethyl)-[3,4′-bipyridine]-5-carboxamide] | > 1000 nM | < 10 nM | +++ (+++=>500) | < 10 nM
C[C@]1(N)CCN(c2c(C(=O)NCc3ccccc3O)cnc(C#N)c2-c2cc(F)cc(F)c2)C1 [1-115, 4-[(3S)-3-amino-3-methylpyrrolidin-1-yl]-6-cyano-5-(3,5-difluorophenyl)-N-[(2-hydroxyphenyl)methyl]pyridine-3-carboxamide] | > 1000 nM | < 10 nM | +++ (+++=>500) | < 10 nM
COc1cc(-c2c(C#N)ncc(C(=O)NC3CCCC3)c2N2CC[C@](C)(N)C2)ccn1 [1-254, 4-[(3S)-3-amino-3-methylpyrrolidin-1-yl]-2-cyano-N-cyclopentyl-2′-methoxy-[3,4′-bipyridine]-5-carboxamide] | > 1000 nM | < 10 nM | +++ (+++=>500) | < 10 nM
C[C@]1(N)CCN(c2c(C(=O)NCc3ccon3)cnc(C#N)c2-c2cc(F)cc(F)c2)C1 [1-114, 4-[(3S)-3-amino-3-methylpyrrolidin-1-yl]-6-cyano-5-(3,5-difluorophenyl)-N-[(1,2-oxazol-3-yl)methyl]pyridine-3-carboxamide] | > 1000 nM | < 10 nM | +++ (+++=>500) | < 10 nM
N#Cc1ncc(C(=O)NC23CC(C2)C3)c(N2CC[C@H](N)C2)c1-c1ccc(F)c(F)c1 [1-66, 4-[(3S)-3-aminopyrrolidin-1-yl]-N-{bicyclo[1.1.1]pentan-1-yl}-6-cyano-5-(3,4-difluorophenyl)pyridine-3-carboxamide] | > 1000 nM | < 10 nM | +++ (+++=>500) | < 10 nM

Continued, values first:

EC50 [1] | EC50 ([2]; Table A) | Fold selectivity for SST5 vs SST2 ([2]; Table B) | EC50 ([2]; Table B) | SMILES
< 10 nM | 10 to 100 nM | – | 10 to 100 nM | Cc1cc(C)cc(NC(=O)c2cncc(-c3cc(C)cc(C)c3)c2N2CC[C@@H](N)C2)c1 (single isomer, unassigned) [1-2]
100 to 1000 nM | < 10 nM | +++ (+++=>500) | < 10 nM | COCCOc1ncc(C(=O)N[C@@H](C)C2CC2)c(N2CC[C@](C)(N)C2)c1-c1cc(F)cc(F)c1 [1-179, 4-[(3S)-3-amino-3-methylpyrrolidin-1-yl]-N-[(1S)-1-cyclopropylethyl]-5-(3,5-difluorophenyl)-6-(2-methoxyethoxy)pyridine-3-carboxamide]
100 to 1000 nM | < 10 nM | +++ (+++=>500) | < 10 nM | Cc1ncc(C(=O)N[C@@H](C)C2CC2)c(N2CC[C@](C)(N)C2)c1-c1cc(F)cc(C#N)c1 [1-123, 4-[(3S)-3-amino-3-methylpyrrolidin-1-yl]-5-(3-cyano-5-fluorophenyl)-N-[(1S)-1-cyclopropylethyl]-6-methylpyridine-3-carboxamide]
100 to 1000 nM | < 10 nM | ++ (++=100 to 499) | < 10 nM | Cc1ncc(C(=O)N[C@@H](C)C(F)(F)F)c(N2CC[C@H](N)C2)c1-c1cc(F)cc(Cl)c1 [1-276, 4-[(3S)-3-aminopyrrolidin-1-yl]-5-(3-chloro-5-fluorophenyl)-6-methyl-N-[(2S)-1,1,1-trifluoropropan-2-yl]pyridine-3-carboxamide]
